Columns and labels:
Type in all cases: in vivo
carrot seeds = assay: Absence of phytotoxicity: sprouting of treated carrot seeds; settings: for Influence on the viability of carrot seeds: seed treatment, conclusion from Table 1
Experimental: To determine the effect of seed treatment on the viability of seeds and sprouting plants, carrot seeds were either treated with metaflumizone, coated with the insecticide chlorfenvinphos (commercially available under, and herein referred to by, the name Birlane™) or left untreated, then sowed and raised under controlled environmental conditions. At day 20 and day 43, respectively, the percentage of seeds which had sprouted was assessed.

Psila rosae [1] = assay: Short-term protection of carrots against Psila rosae by seed coating; settings: for Reduction of early damage by maggots: conclusion from Table 2
Source text: In order to determine the efficacy of seed coating against dipteran larvae, carrot seeds were coated with two different concentrations of metaflumizone, Birlane™ or left untreated, then sowed and raised as described in Example 1. At day 35 after sowing, the plants were exposed to infestation by Psila rosae, which was monitored by adult trap catches. 300 to 400 insects per trap indicated fair infestation pressure. At days 35 and 91, respectively, 100 plants per field were examined for maggot infestation.
All test products were applied by seed coating of carrot seeds. Birlane™ was applied according to label recommendations for carrots. Metaflumizone was applied at 50 ml and 100 ml formulated product per seed unit, respectively. The assessments of carrot rooffly damage were conducted 35 and 91 daysafter sowing. Infestation was evaluated by assessing 100 carrot roots per treatment, and the number of infested plants was recorded. The figures included in the table show the percentage of damaged plants by treatment.

Psila rosae [2] = assay: Long-term effect of carrot seed coating against Psila rosae; settings: for Percentage of plants infested with Psila rosae (long-term): carrot seed coating 100 ml/unit; for Persistence of the protective effect of seed treatment: carrot seed coating, conclusion from Table 3
Experimental: The objective of this trial was the direct comparison of metaflumizone with the market standard Birlane™ at 100 ml product per unit of seed. Activity evaluation considered the residual activity of the products up to 124 days after application.
Carrot seeds were coated or left uncoated, sowed and raised as described in Example 2 and subjected to Psila rosae infestation at an approximate density of 300 to 400 insects per trap at days 46 to 53 after sowing. At days 82, 96, 110 and 124, respectively, 100 plants per field were examined for maggot infestation.

Psila rosae [3] = assay: Effective dosage of metaflumizone on carrot seeds against Psila rosae
Source text: In order to quantify the effect of metaflumizone against maggots, carrot seeds were coated with different concentrations of metaflumizone, with Birlane™ or left uncoated, then sowed and raised as described in the above Examples.

Helix hortensis = assay: Greenhouse snail trial on sprayed lettuce; settings: lettuce sprayed with 240 g active ingredient per ha (240 g/l suspension concentrate)
Experimental: For this example, a 240 g/l suspension concentrate of a compound I with R^1=trifluoromethyl in meta position, R^2=cyano in para position and R^3=trifluoromethoxy in para position was used with an application rate of 240 gram active ingredient per ha.
The trial was carried out in the greenhouse under practical conditions in sandy soil. Three lettuce plants, variety Filipo, growth stage 45-46, were used as plot size. The lettuce was sprayed with a solution of the above mentioned compound at a rate of 240 gram active ingredient per hectare with 500 l/ha water. For spraying was a single Teejet® nozzle, model 8002 (from Spraying System Mobile Systems Division, Wheaton, Ill., USA), at 3 atmosphere pressure used.
After the spray application, the plots were covered by net cages (diameter 40 cm) and 20 snails (sexually mature individuals of Helix hortensis) were added to every plot.
Also an estimation of eating damages was recorded.

[4] = 4 days after placing the snails

N#Cc1ccc(CC(=NNC(=O)Nc2ccc(OC(F)(F)F)cc2)c2cccc(C(F)(F)F)c2)cc1 (racemic) [metaflumizone, 2-[2-(4-cyanophenyl)-1-[3-(trifluoromethyl)phenyl]ethylidene]-N-[4-(trifluoromethoxy)phenyl]hydrazinecarboxamide]
Percentage of growing plants (carrot seeds; carrot, in vivo, 20 day): 42%
Percentage of growing plants (carrot seeds; carrot, in vivo, 43 day): 47%
Influence on the viability of carrot seeds (carrot seeds): no significant influence
Percentage of plants infested with Psila rosae (Psila rosae [1]; carrot seed coating 50 ml/unit, Day 35 after sowing): 3%
Percentage of plants infested with Psila rosae (Psila rosae [1]; carrot seed coating 50 ml/unit, Day 91 after sowing): 12%
Percentage of plants infested with Psila rosae (Psila rosae [1]; carrot seed coating 100 ml/unit, Day 35 after sowing): 7%
Percentage of plants infested with Psila rosae (Psila rosae [1]; carrot seed coating 100 ml/unit, Day 91 after sowing): 10%
Reduction of early damage by maggots (Psila rosae [1]; carrot seed coating): effective in reducing early damage by maggots
Prevention of damage to seedlings compared with Birlane (Psila rosae [1]; carrot seed coating, during the first weeks): slightly more efficient than Birlane™
Percentage of plants infested with Psila rosae (long-term) (Psila rosae [2]; Day 82): 2%
Percentage of plants infested with Psila rosae (long-term) (Psila rosae [2]; Day 96): 4%
Percentage of plants infested with Psila rosae (long-term) (Psila rosae [2]; Day 110): 10%
Percentage of plants infested with Psila rosae (long-term) (Psila rosae [2]; Day 124): 22%
Persistence of the protective effect of seed treatment (Psila rosae [2]): gradually wore off after 3-4 months
Effective dosage of metaflumizone in the treatment of carrot seeds (percentage) (Psila rosae [3]; 25 ml/unit, Day 70): 2%
Effective dosage of metaflumizone in the treatment of carrot seeds (percentage) (Psila rosae [3]; 25 ml/unit, Day 97): 33%
Effective dosage of metaflumizone in the treatment of carrot seeds (percentage) (Psila rosae [3]; 25 ml/unit, Day 116): 73%
Effective dosage of metaflumizone in the treatment of carrot seeds (percentage) (Psila rosae [3]; 50 ml/unit, Day 70): 1%
Effective dosage of metaflumizone in the treatment of carrot seeds (percentage) (Psila rosae [3]; 50 ml/unit, Day 97): 24%
Effective dosage of metaflumizone in the treatment of carrot seeds (percentage) (Psila rosae [3]; 50 ml/unit, Day 116): 61%
Effective dosage of metaflumizone in the treatment of carrot seeds (percentage) (Psila rosae [3]; 75 ml/unit, Day 70): 0%
Effective dosage of metaflumizone in the treatment of carrot seeds (percentage) (Psila rosae [3]; 75 ml/unit, Day 97): 14%
Effective dosage of metaflumizone in the treatment of carrot seeds (percentage) (Psila rosae [3]; 75 ml/unit, Day 116): 55%
Effective dosage of metaflumizone in the treatment of carrot seeds (percentage) (Psila rosae [3]; 100 ml/unit, Day 70): 0%
Effective dosage of metaflumizone in the treatment of carrot seeds (percentage) (Psila rosae [3]; 100 ml/unit, Day 97): 29%
Effective dosage of metaflumizone in the treatment of carrot seeds (percentage) (Psila rosae [3]; 100 ml/unit, Day 116): 55%

CCOP(=O)(OCC)O/C(=C\Cl)c1ccc(Cl)cc1Cl [Birlane ™, chlorfenvinphos, reference compound]
Percentage of growing plants (carrot seeds; carrot seeds, Day 20, coated with Birlane): 52%
Percentage of growing plants (carrot seeds; carrot seeds, Day 43, coated with Birlane): 56%
Influence on the viability of carrot seeds (carrot seeds): no significant influence
Percentage of plants infested with Psila rosae (Psila rosae [1]; carrot seed coating according to label recommendations, Day 35 after sowing): 9%
Percentage of plants infested with Psila rosae (Psila rosae [1]; carrot seed coating according to label recommendations, Day 91 after sowing): 12%
Reduction of early damage by maggots (Psila rosae [1]; carrot seed coating): effective in reducing early damage by maggots
Percentage of plants infested with Psila rosae (long-term) (Psila rosae [2]; Day 82): 0.5%
Percentage of plants infested with Psila rosae (long-term) (Psila rosae [2]; Day 96): 2%
Percentage of plants infested with Psila rosae (long-term) (Psila rosae [2]; Day 110): 8%
Percentage of plants infested with Psila rosae (long-term) (Psila rosae [2]; Day 124): 11%
Persistence of the protective effect of seed treatment (Psila rosae [2]): gradually wore off after 3-4 months
Effective dosage of metaflumizone in the treatment of carrot seeds (percentage) (Psila rosae [3]; Birlane, dose not given, Day 70): 0.1%
Effective dosage of metaflumizone in the treatment of carrot seeds (percentage) (Psila rosae [3]; Birlane, dose not given, Day 97): 23%
Effective dosage of metaflumizone in the treatment of carrot seeds (percentage) (Psila rosae [3]; Birlane, dose not given, Day 116): 61%

N#Cc1ccc(C/C(=N/NC(=O)Nc2ccc(OC(F)(F)F)cc2)c2cccc(C(F)(F)F)c2)cc1 [metaflumizone, 2-[2-(4-cyanophenyl)-1-[3-(trifluoromethyl)phenyl]ethylidene]-N-[4-(trifluoromethoxy)phenyl]hydrazinecarboxamide]
snails inactive (Helix hortensis; 1 day after placing the snails): 47%
snails inactive (Helix hortensis; 2 days after placing the snails): 63%
snails dead (Helix hortensis; [4]): 71%
snails inactive (further to the dead) (Helix hortensis; [4]): 12%

Reference: patent US20080207446A1, “Use of Phenylsemicarbazones for Seed Treatment” (BASF Aktiengesellschaft, priority 2005, published 2008)
